Measurements: patent US20200397894A1, “COMPOSITIONS AND METHODS FOR TREATING CANCER” (University of Virginia Patent Foundation, priority 2016, published 2020)

Key:
[1] = tested on: DM93 cells; test: Cell cycle distribution and rereplication by propidium iodide staining and FACS; format: cell-based, human; conditions: for DM93 cells exhibiting >4N DNA content / Percent Cells in S and G2/M / Percent Cells in sub-G1: 1 μM pevonedistat; for Percent Cells in S and G2/M / Percent Cells in sub-G1 / Percent of Cells in S and G2/M / Percent of Cells in sub-G1: DM93 cells; for rereplication after transient exposure and washout: analyzed 48 hours later
Experimental: The effects of pevonedistat, vemurafenib, and/or silencing of various cell cycle-associated proteins by siRNA on cell cycle distribution and rereplication were assessed by propidium iodide staining and flow cytometry of asynchronous melanoma cultures. Synchronization of cells was not employed to avoid bias and to be able to measure the impact of these perturbations on proliferating cancer cells. […] Cells were washed with cold PBS, harvested, and fixed in 70% (v/v) ethanol. Cells were subsequently treated with 20 μg of DNase-free RNase and stained with propidium iodide according to instructions of the manufacturer. Samples were analyzed on a FACSCAN™ (Becton, Dickinson and Company, Franklin Lakes, N.J., United States of America) and G0-G1, S, and G2-M fractions were segmented, and apoptotic (sub-G1 DNA content) and rereplicating (>G2/M DNA content) fractions were determined using FLOWJO® (FLOWJO, LLC, Ashland, Oreg., United States of America) and ModFit (Verity Software House, Topsham, Me., United States of America) software.

[2] = tested on: HNSCC cells; test: Colony formation and CYQUANT cell viability assays; format: cell-based; conditions: Homo sapiens
Experimental: HNSCC cells were transfected with si-RNA (48 hours prior to first count) or treated with pevonedistat (24 hours prior to first count). 8×10^5 cells were seeded in 60 mm plates and cell proliferation was determined by staining with trypan blue and counting by COUNTESS™ Automated Cell Counter (INVITROGEN™, Carlsbad, Calif., United States of America). Depending on the cell growth rate, cell counts were recorded either every 24 or 48 hours, and growth curves were established.
The effect of pevonedistat treatment or transient silencing of CDT2, geminin, or EMI1 on cell proliferation or on radiation sensitivity was tested using clonogenic survival assays. Cells were transfected with the appropriate si-RNA 48 hours prior to seeding. Cells were then counted using COUNTESS™ Automated Cell Counter (INVITROGEN™, Carlsbad, Calif., United States of America) and were seeded at 15,000 cells/plate in 60 mm dishes. Cells were irradiated 24 hours after seeding with various doses and were cultured for 7-10 days. […] QUANTITY ONE® software (BioRad Laboratories, Inc., Hercules, Calif., United States of America) was used to quantify the number of colonies and survival curves were established based on the linear quadratic model, using the formula S=e^−αD-βD2; where S represents the surviving fraction and D the dose of irradiation. […]

[3] = tested on: FaDu cells; test: Rereplication by propidium iodide staining and FACS (HNSCC); format: cell-based, human
Experimental: The effect of pevonedistat treatment or CDT2, geminin, or EMI1 knockdown on the cell cycle (and induction of DNA rereplication) was assessed by flow cytometry with propidium iodide (PI) staining. Cells were harvested at 72 or 96 hours post-treatment with pevonedistat or post-transfection, respectively. Cells were collected, washed with PBS, and resuspended in ethanol (75%). Cells were subsequently treated with 20 μg of DNase-free RNase and stained with PI following the manufacturer's protocol. FACSCAN™ (Becton, Dickinson and Company, Franklin Lakes, N.J., United States of America) was used to analyze the samples and G0-G1, S, and G2-M fractions were segmented. Subsequent analysis using FLOWJO® (FLOWJO, LLC, Ashland, Oreg., United States of America) and ModFit (Verity Software House, Topsham, Me., United States of America) software was used to determine apoptotic and re-replicating fractions. Where indicated, Cal27 and FaDu cells were treated with pevonedistat for 48 hours and pulsed with BrdU (10 nM) for 1 hour in the dark prior to harvesting. Cells were washed with PBS and staining solution before fixation and permeabilization steps according to the manufacturer's protocol. Cells were subsequently stained with anti-BrdU antibody solution for 20 minutes at room temperature, washed, and stained with 7-AAD for 30 minutes at 4° C. Cells were resuspended in 1 ml of staining buffer and stored at 4° C. overnight before analysis. Sampled were analyzed on a FACSCAN™ (Becton, Dickinson and Company, Franklin Lakes, N.J., United States of America), and different fractions of BrdU positive cells were determined using FLOWJO® (FLOWJO, LLC, Ashland, Oreg., United States of America) and ModFit (Verity Software House, Topsham, Me., United States of America) software.

[4] = 24 hours, 0.025 μM pevonedistat
[5] = 24 hours, 0.100 μM pevonedistat
[6] = 24 hours, 0.500 μM pevonedistat (first row so printed, r9)
[7] = 24 hours, 0.500 μM pevonedistat (r11)
[8] = 24 hours, 0.750 μM pevonedistat
[9] = 24 hours, 1.000 μM pevonedistat
[10] = 24 hours, 2.000 μM pevonedistat

Structure (SMILES): NS(=O)(=O)OCC1CC(n2ccc3c(NC4CCc5ccccc54)ncnc32)CC1O [pevonedistat, ((1S,2S,4R)-4-(4-((1S)-2,3-Dihydro-H-inden-1-ylamino)-7H-pyrrolo(2,3-d)pyrimidin-7-yl)-2-hydroxycyclopentyl)methyl sulphamate]
- DM93 cells exhibiting >4N DNA content ([1]; by 72 hours of treatment): 68%
- DM93 cells exhibiting >4N DNA content ([1]; within 24 hours): 18%
- cells undergoing rereplication ([1]; DM93, 1 μM pevonedistat for 48 hours): 45%
- Percent of Cells in S and G2/M at 24 hours ([1]; DM93, 1 μM pevonedistat, 24 hours): 27.2%
- Percent of Cells in S and G2/M at 72 Hours ([1]; DM93, 1 μM pevonedistat, 72 hours): 59.2%
- cells undergoing rereplication ([1]; DM93, 72 hours post-treatment): 60%
- lowest drug concentration at which rereplication was observed ([1]; DM93, analyzed at 24 hours): 500 nM
- cells with sub-G1 DNA content ([1]; DM93, pevonedistat, 72 hours): ~7%
- Percent Cells in S and G2/M ([1]; 3 hours): 4.05%
- Percent Cells in sub-G1 ([1]; 3 hours): 1.94%
- Percent Cells in S and G2/M ([1]; 6 hours): 13%
- Percent Cells in sub-G1 ([1]; 6 hours): 0.49%
- Percent Cells in S and G2/M ([1]; 24 hours): 17%
- Percent Cells in sub-G1 ([1]; 24 hours): 1.4%
- Percent Cells in S and G2/M ([1]; 48 hours): 64.7%
- Percent Cells in sub-G1 ([1]; 48 hours): 2.08%
- Percent Cells in S and G2/M ([1]; 72 hours): 68.3%
- Percent Cells in sub-G1 ([1]; 72 hours): 7.08%
- Percent of Cells in S and G2/M [1, 4]: 0.57%
- Percent of Cells in sub-G1 [1, 4]: 1.72%
- Percent of Cells in S and G2/M [1, 5]: 2.21%
- Percent of Cells in sub-G1 [1, 5]: 5.62%
- Percent of Cells in S and G2/M [1, 6]: 1.11%
- Percent of Cells in sub-G1 [1, 6]: 1.61%
- Percent of Cells in S and G2/M [1, 7]: 18.1%
- Percent of Cells in sub-G1 [1, 7]: 4.49%
- Percent of Cells in S and G2/M [1, 8]: 47.4%
- Percent of Cells in sub-G1 [1, 8]: 2.05%
- Percent of Cells in S and G2/M [1, 9]: 56.6%
- Percent of Cells in sub-G1 [1, 9]: 1.21%
- Percent of Cells in S and G2/M [1, 10]: 66%
- Percent of Cells in sub-G1 [1, 10]: 0.53%
- rereplication after transient exposure and washout ([1]; treated 12 hours): 18%
- rereplication after transient exposure and washout ([1]; treated 24 hours): 60%
- IC50 [2]: ~50 nM
- cells undergoing rereplication ([3]; 40 nM pevonedistat 48 hours plus 2 Gy at the 24 hour time point): 42.2%
- cells undergoing rereplication ([3]; 40 nM pevonedistat for 48 hours): 21.6%
- cells exhibiting >4N DNA content ([3]; 100 nM pevonedistat, PI staining): 60.4%
